The values below are quoted from earlier work in patent US11766411B2, “Use of cannabinoids in the treatment of epilepsy” (GW Research Limited, priority 2014, dated 2023).

The conditions of the data set: Consroe et al., 1977; cited from earlier work.

Regarding `CCCCCc1cc(O)c2c(c1)OC(C)(C)[C@@H]1CCC(C)=C[C@@H]21` [THC, Tetrahydrocannabinol], the effect on convulsions result was “pro-convulsant”.
